Assay results reported in ChEMBL document CHEMBL4219070, “Probing biological activity through structural modelling of ligand-receptor interactions of 2,4-disubstituted thiazole retinoids” (Bioorg Med Chem, 2018).
Active and inactive are the calls of the source. The calls are words filed in the database; no cut-off is given here.

What was measured:
SH-SY5Y = experiment: Induction of neuronal differentiation in human SH-SY5Y cells assessed as increase in RARbeta mRNA expression at 0.001 to 1 uM measured after 8 hrs by RT-PCR analysis; format: functional, cell-based
Homo sapiens = species on record: Homo sapiens; experiment: Induction of neuronal differentiation in human TERA2.cl.SP12 cells assessed as small and scattered colonies of TUJ-1 positive cells at 10 uM measured measured after 2 weeks by immunofluorescence method; format: functional, cell-based

Question: For CC1=C(/C=C/C(C)=C/C=C/C(C)=C/C(=O)O)C(C)(C)CCC1, which Activity (SH-SY5Y) is on record?
Answer: Its Activity is “Active”.

Question: Which Activity (Homo sapiens) does the source give for CCOCCOc1nc(-c2ccc(C(=O)O)cc2)sc1C here?
Answer: The Activity was “Active”.

Question: What about the Activity (SH-SY5Y) of the same compound?
Answer: The Activity was “Active”.

Question: With CCOC(=O)c1ccc(-c2nc(-c3ccccc3)c(C)s2)cc1 as the compound, how does the Activity (Homo sapiens) read?
Answer: The Activity was “Active”.
